This note sets out measurements from US20250214966A1, “Crystalline Salt Form Of A SHP2 Inhibitor” (Array BioPharma Inc., priority 2022, published 2025).

Format in all cases: physicochemical
A short description of data set [1]: Thermal analysis TGA/DSC (Tables 12 and 13). The note with it: 10° C./minute heating rate. The procedure:
Thermogravimetric Analysis (“TGA”) (Table 12): Thermogravimetric analysis was conducted using a Discovery TGA (TA instruments) thermogravimetric analyzer. Samples of approximately 10 mg were weighed into aluminum pans and heated from ambient to 300° C. at 10° C./minute heating rate under nitrogen purge (10 mL/min for both sample chamber and balance).
Differential Scanning Calorimetry (“DSC”) (Table 12): DSC measurements were performed with Discovery DSC (TA instruments) equipped with a refrigerated cooling accessory. All the experiments were performed in standard/Tzero aluminum pans. The cell constant was determined using indium and temperature calibration was performed using indium and tin as standards. All the measurements were done under continuous dry nitrogen purge (50 mL/min). Approximately 1-5 mg of solid sample was weighed into a Tzero aluminum pan, sealed non-hermetically and heated from 0° C. to 250° C. at 10° C./min heating rate. The experimental data were analyzed using commercially available software (TA Universal Analysis 2000/Trios software, TA Instruments).
TGA/DSC (Table 13): A Simultaneous DSC/TGA instrument was used for the thermal analysis. Approximately 3.2 mg of the API was placed in an aluminum Tzero DSC pan was loaded into the instrument via autosampler. The sample was equilibrated to 35° C. in the instrument prior to analysis and was ramped to 400° C. at a ramp rate of 10° C./min. Dry nitrogen gas from the in-house supply was used.

A short description of data set [2]: Physical stability (PXRD) after storage at 70° C. The procedure:
Physical Stability (PXRD) (Table 12): Powder X-ray diffraction analysis was conducted using a Bruker AXS D8 Endeavor diffractometer equipped with a Cu radiation source. The divergence slit was set at 10 mm continuous illumination. Diffracted radiation was detected by a PSD-Lynx Eye detector, with the detector PSD opening set at 2.99 degrees. The X-ray tube voltage and amperage were set to 40 kV and 40 mA respectively. Data was collected in the Theta-Theta goniometer at the Cu wavelength from 3.0 to 40.0 degrees 2-Theta using a step size of 0.02 degrees and a step time of 0.3 second. The antiscatter screen was set to a fixed distance of 1.5 mm. Samples were rotated at 15/min during collection. Samples were prepared by placing them in a silicon low background sample holder and rotated during collection. Data were collected using Bruker DIFFRAC Plus software and analysis was performed by EVA diffract plus software. A Small divot sample holder was used.
Physical Stability (PXRD) (Table 13): The Rigaku MiniFlex 6G Diffractometer used is equipped with a Cu radiation source. Diffracted radiation was detected by a D/teX Ultra2 detector. The X-ray tube voltage and amperages were set to 40 kV and 15 mA respectively. Data was collected in the Miniflex goniometer at the Cu wavelength from 3.0 to 45.0° 20 using a step width of 0.02° and a step speed of 2.00°/minute. The incident slit box was set to 1.25° and the length limiting slit was set at 10 mm. The sample was rotated at 10 RPM during collection. The data was analyzed using Rigaku software SmartLab Studio II.
The sample was prepared by placement into a silicon low background sample holder (0.2 indent plate). The sample was confirmed to be level and packed prior to measurement. The sample was not ground (by mortar and pestle, or by any other means) prior to placement in the sample holder.

A short description of data set [3]: Solubility in buffers, HPLC of mother liquors (Tables 12 and 13). The note with it: for solubility at 25 h: 25 °C, thermodynamic from solid, read-out: Solubility Concentration. The procedure: Upon addition of the buffer solutions, the samples were vortexed. The samples were rotated at 40° C. for 8 hours, 15° C. for 5 hours, and 25° C. for 12 hours in an Envirogenie thermomixer. After the thermomixing cycle, the slurries were isolated by centrifugation filtration and the isolated mother liquors were analyzed by HPLC.
HPLC method (Tables 12 and 13): An Agilent 1290 UPLC instrument was used with a Waters XSelect HSS T3 Column (100 angstrom, 4.6×150 mm, 5 μm). The column temperature was set to 20° C., the UV wavelength set to 254 nm, the injection volume was 10 μL, with a flow rate of 1.0 mL/min. 10 mM Ammonium acetate adjusted to pH 4.8 was used as a mobile phase A, and acetonitrile was used as mobile phase B. The gradient method was set up to achieve 15% mobile phase B at 0 minutes, 95% mobile phase B at 17 minutes—held until 22 minutes, 15% mobile phase B at 22.1 minutes—held until 28 minutes.

[4] abbreviates: 70° C./75% RH, first of two lines so headed.
Setting [5] is: printed 70° C./75% RH, second of two lines so headed.

Structures can show the parent of a compound that is named as a salt. Where two headings read alike, the source gives them in different places.

As to `Nc1nccc(Sc2cnc(N3CCC4(CC3)Cc3ccccc3[C@H]4N)nn2)c1Cl.Nc1nccc(Sc2cnc(N3CCC4(CC3)Cc3ccccc3[C@H]4N)nn2)c1Cl.O` [Example 2, (S)-1′-(6-((2-amino-3-chloropyridin-4-yl)thio)-1,2,4-triazin-3-yl)-1,3-dihydrospiro[indene-2,4′-piperidin]-1-amine Free Base Hemihydrate (Form 1)], in data set [1], the “Decomposition Onset (° C.)” value is approximately 240 °C. Besides, the “Dehyradtion Onset (° C.)” value in data set [1] is approximately 72 °C. For the same compound, the “Physical Stability (70° C./75% RH)” value in data set [2] (setting [4]) and in data set [2] (setting [5]) was “No change” each time. The “Solubility Concentration” value in data set [3] (Water, Final pH 9.19, Final XRD Additional peak at 8°) turned out to be 0.24 µg/mL; in data set [3] (pH 3, Final pH 4.51, Final XRD Freebase Form 1), 2044.85 µg/mL; in data set [3] (pH 4, Final pH 5.12, Final XRD Freebase Form 1), 301.79 µg/mL; in data set [3] (pH 5, Final pH 6.06, Final XRD Freebase Form 1) it was 58.53 µg/mL; in data set [3] (pH 6, Final pH 6.95, Final XRD Freebase Form 1), 32.25 µg/mL; in data set [3] (pH 7, Final pH 8.19, Final XRD Freebase Form 1), 10.05 µg/mL. The “Solubility Concentration” value in data set [3] (pH 8, Final pH 9.13, Final XRD Insufficient solids) amounted to 0.56 µg/mL; in data set [3] (pH 9, Final pH 10.2, Final XRD Insufficient solids), 0.26 µg/mL; in data set [3] (pH 10, Final pH 3.94, Final XRD Insufficient solids), 0.45 µg/mL.

Regarding `Nc1nccc(Sc2cnc(N3CCC4(CC3)Cc3ccccc3[C@H]4N)nn2)c1Cl` [Example 3, (S)-1′-(6-((2-amino-3-chloropyridin-4-yl)thio)-1,2,4-triazin-3-yl)-1,3-dihydrospiro[indene-2,4′-piperidin]-1-amine Mono Succinate Salt Form 1], the “Decomposition Onset (° C.)” value in data set [1] was approximately 180 °C. Moreover, the “Physical Stability (70° C./75% RH)” value in data set [2] (setting [4]) and in data set [2] (setting [5]) was “No change” throughout. For the same compound, the solubility at 25 h in data set [3] (Water, Final pH 5.01, Final XRD Succinate Form 1) was found to be 8180 µg/mL; in data set [3] (pH 3 buffer, aqueous buffer, pH 3, Final pH 4.5, Final XRD Succinate Form 1), 4220 µg/mL; in data set [3] (pH 4 acetate buffer, aqueous buffer, pH 4, Final pH 4.16, Final XRD Insufficient solids), 6400 µg/mL; in data set [3] (pH 5 buffer, aqueous buffer, pH 5, Final pH 5.08, Final XRD Succinate Form 1), 4440 µg/mL; in data set [3] (pH 6 phosphate buffer, aqueous buffer, pH 6, Final pH 5.37, Final XRD Freebase Form 1), 597 µg/mL; in data set [3] (pH 7 buffer, aqueous buffer, pH 7, Final pH 6.81, Final XRD Insufficient solids), 17.1 µg/mL. Also, the solubility at 25 h worked out at 2.66 µg/mL in data set [3] (pH 8 buffer, aqueous buffer, pH 8, Final pH 7.78, Final XRD Freebase Form 1); 0.18 µg/mL in data set [3] (pH 9 buffer, aqueous buffer, pH 9, Final pH 9.01, Final XRD Freebase Form 1); 0.17 µg/mL in data set [3] (pH 10 buffer, aqueous buffer, pH 10, Final pH 9.82, Final XRD Freebase Form 1).
